{"source": "patent US5482954A", "about": "“Signal transduction inhibitor triazole and diazole compounds” (priority 1994, dated 1996)", "origin": "cited, not measured here", "system": "production of PGE2 and PGF2a", "details": "Honn, et al.; cited from earlier work", "data": [{"smiles": "COc1ccc2c(c1)c(CC(=O)O)c(C)n2C(=O)c1ccc(Cl)cc1", "note": "[indomethacin]", "values": [{"measurement": "inhibition of phorbol ester-stimulated production of PGE2 and PGF2a", "value": "selectively inhibited"}]}]}
